One test concerns the target T1, PRMT5/MEP50 complex (Homo sapiens, UniProt O14744).
T1 construct: purchased Reaction Biology Corporation
The test can be described thus: PRMT5:MEP50 HotSpot Assay (full-length histone H2A substrate, plus and minus MTA). The class given is biochemical. The settings on record: IC50 + 2 μM MTA, in the presence of 2 μM MTA. In short, it runs like this: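 Radiometric HotSpot format using recombinant full-length histone H2A as substrate, run with and without MTA. Reactions were stopped and spotted onto filter paper. Tritiated H2A was quantified by scintillation counting.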

Test [1] deals with HCT116 homozygous MTAP knockout cells. Description: Proliferation assay (CellTiter-Glo, 10 days) in HCT116 homozygous MTAP knockout cells. It is filed as cell-based. The settings on record: CellTiter-Glo after 10 days of treatment, read-out: Proliferation IC50 (nM) HCT116 MTAP_KO. On the procedure:
HCT116 cells were genetically engineered to knock out the function of both MTAP alleles using a CRISPR/Cas9 system and an sgRNA targeting the MTAP gene. Following Cas9/MTAP sgRNA transduction, clones were screened to confirm that each allele of the MTAP gene had been inactivated (i.e., homozygous MTAP knock out) creating an MTAP-deficient cell.
Control samples were analyzed in parallel.
Briefly, on Day 0, 250 HCT116 parental or HCT116 homozygous MTAP knockout cell were seeded in 96 well plates in McCoy's 5A supplemented with […] fetal bovine serum and pen/strep and the cells were incubated overnight at 37° C. plus 5% CO2.
The following day, cells were treated with DMSO vehicle control or a dose response of PRMT5 inhibitors and incubated at 37 C plus 5% CO2 for five days. On Day 6, the cells were trypsinized and split 1:10 into new 96-well plates with fresh medium containing the same concentration of PRMT5 inhibitor and incubated for an additional 5 days at 37° C. plus 5% CO^2.
On Day 11, the viability of the cells was measured using a CTG assay kit (CellTiter-Glo; Promega cat.no G7573) in accordance with the manufacturer's instructions. The IC50 values for each compound after 10 days of treatment were calculated using GraphPad PRISM software.
(In general: Cellular ATP, detected with luciferase, serves as a proxy for viable cell number.)

Where a name gives a salt, the structure may show the parent alone. Read-outs that look alike come from different tables or passages of the source. Bounds are passed on as bounds.

Experimental findings from patent US20240208912A1 (Mirati Therapeutics, Inc., priority 2021, published 2024) are described below.

T1 sequence (O14744 2-637 limits assumed): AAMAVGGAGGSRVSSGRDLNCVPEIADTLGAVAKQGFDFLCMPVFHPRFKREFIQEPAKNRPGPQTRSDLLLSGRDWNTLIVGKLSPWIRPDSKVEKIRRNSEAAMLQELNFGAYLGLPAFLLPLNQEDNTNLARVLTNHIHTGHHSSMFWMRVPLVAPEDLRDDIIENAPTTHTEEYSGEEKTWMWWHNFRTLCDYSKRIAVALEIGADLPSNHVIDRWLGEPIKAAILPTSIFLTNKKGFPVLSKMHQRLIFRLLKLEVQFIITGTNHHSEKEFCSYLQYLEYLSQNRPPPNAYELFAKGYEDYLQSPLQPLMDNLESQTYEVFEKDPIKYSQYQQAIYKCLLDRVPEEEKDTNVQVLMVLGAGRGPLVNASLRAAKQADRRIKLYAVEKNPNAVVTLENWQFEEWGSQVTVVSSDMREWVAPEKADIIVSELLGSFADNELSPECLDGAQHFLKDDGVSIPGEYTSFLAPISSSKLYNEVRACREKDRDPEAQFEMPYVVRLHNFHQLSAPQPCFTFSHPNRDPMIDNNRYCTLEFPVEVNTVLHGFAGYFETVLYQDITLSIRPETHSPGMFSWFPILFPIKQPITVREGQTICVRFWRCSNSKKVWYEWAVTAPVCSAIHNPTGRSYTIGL
T1 sequence (Q9BQA1 2-342 partner limits assumed): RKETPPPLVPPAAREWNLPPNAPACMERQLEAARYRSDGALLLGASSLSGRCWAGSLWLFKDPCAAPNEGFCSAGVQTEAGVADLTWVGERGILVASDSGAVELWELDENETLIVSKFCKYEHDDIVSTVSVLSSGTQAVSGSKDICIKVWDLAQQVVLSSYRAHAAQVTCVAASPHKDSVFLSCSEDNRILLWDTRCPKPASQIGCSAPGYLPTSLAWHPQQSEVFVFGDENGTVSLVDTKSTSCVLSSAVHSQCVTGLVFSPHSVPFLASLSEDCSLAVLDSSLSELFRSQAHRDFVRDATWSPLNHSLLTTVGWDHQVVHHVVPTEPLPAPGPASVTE

In the case of `COc1cccc2c(C#N)c(-c3c(-c4ccc5c(=O)[nH]nc(CN)c5c4)cnn3C)sc12` [Example 4-268, 2-[4-[4-(aminomethyl)-1-oxo-2H-phthalazin-6-yl]-2-methyl-pyrazol-3-yl]-7-methoxy-benzothiophene-3-carbonitrile], the IC50 is 165 nM on PRMT5/MEP50 complex and 201 nM in test [1] (Homo sapiens, HCT-116, 240 h).

As to `Cc1cc(-c2c(-c3ccc4c(=O)[nH]nc(CN)c4c3)cnn2C)n2c1CCCC2=O` [Example 4-257, 4-(aminomethyl)-6-[1-methyl-5-(1-methyl-5-oxo-7,8-dihydro-6H-indolizin-3-yl)pyrazol-4-yl]-2H-phthalazin-1-one], the IC50 at PRMT5/MEP50 complex worked out at 547 nM; in test [1] (Homo sapiens, HCT-116, 240 h) it was 618 nM.

For `Cc1cc(OC2CC2)c(C#N)c(-c2c(-c3ccc4c(=O)[nH]nc(CN)c4c3)cnn2C)c1F` (single isomer, unassigned) [Example 16-19, (P)-2-[4-[4-(aminomethyl)-1-oxo-2H-phthalazin-6-yl]-2-methyl-pyrazol-3-yl]-6-(cyclopropoxy)-3-fluoro-4-methyl-benzonitrile], the IC50 at PRMT5/MEP50 complex is 173 nM; in test [1] it was 1070 nM.

For `Cn1ncc(-c2ccc3c(=O)[nH]nc(CN)c3c2)c1-c1c(C#N)ccc2c1COC2` (single isomer, unassigned) [Example 16-69, (M)-4-[4-[4-(aminomethyl)-1-oxo-2H-phthalazin-6-yl]-2-methyl-pyrazol-3-yl]-1,3-dihydroisobenzofuran-5-carbonitrile], the results for the IC50 (at PRMT5/MEP50 complex; in test [1]) were 6540 nM and 10200 nM, respectively.

Regarding `Cn1ncc(-c2ccc3c(=O)[nH]nc(CN)c3c2)c1-c1c(C#N)ccc2c1COC2` (single isomer, unassigned) [Example 16-70, (P)-4-[4-[4-(aminomethyl)-1-oxo-2H-phthalazin-6-yl]-2-methyl-pyrazol-3-yl]-1,3-dihydroisobenzofuran-5-carbonitrile], the IC50 came to 542 nM on PRMT5/MEP50 complex and 462 nM in test [1].

Regarding `Cn1ncc(-c2ccc3c(=O)[nH]nc(CN)c3c2)c1-c1sc2c(C3CCCO3)cccc2c1C#N` (centres unmarked) [Example 12-21, 2-[4-[4-(aminomethyl)-1-oxo-2H-phthalazin-6-yl]-2-methyl-pyrazol-3-yl]-7-THF-2-yl-benzothiophene-3-carbonitrile hydrochloride], the IC50 on PRMT5/MEP50 complex was determined as 128 nM; in test [1] (Homo sapiens, HCT-116, 240 h) it was 126 nM.

For `CCOc1cc(-c2cnn(C)c2-c2c(F)c(Cl)c3ccccc3c2C#N)cc2c(CN)n[nH]c(=O)c12` (single isomer, unassigned) [Example 16-80, (M)-2-[4-[4-(aminomethyl)-8-ethoxy-1-oxo-2H-phthalazin-6-yl]-2-methyl-pyrazol-3-yl]-4-chloro-3-fluoro-naphthalene-1-carbonitrile], the IC50 at PRMT5/MEP50 complex was 415 nM; in test [1], 13 nM.

Take `Cn1ncc(-c2ccc3c(=O)[nH]nc(CN)c3c2)c1-c1c(C#N)c(OC2CC2)c2ccccc2c1Cl` (single isomer, unassigned) [Example 16-24, (M)-3-[4-[4-(aminomethyl)-1-oxo-2H-phthalazin-6-yl]-2-methyl-pyrazol-3-yl]-4-chloro-1-(cyclopropoxy)naphthalene-2-carbonitrile]: the IC50 came out at 37.2 nM at PRMT5/MEP50 complex and 61 nM in test [1].

In the case of `Cn1ncc(-c2cc(Cl)c3c(=O)[nH]nc(CN)c3c2)c1-c1c(F)cc2ncc(Cl)cc2c1C#N` (single isomer, unassigned) [Example 16-61, (P)-6-[4-[4-(aminomethyl)-8-chloro-1-oxo-2H-phthalazin-6-yl]-2-methyl-pyrazol-3-yl]-3-chloro-7-fluoro-quinoline-5-carbonitrile], the values for the IC50 (at PRMT5/MEP50 complex; in test [1]) were 217 nM and 80 nM, respectively.

As to `Cn1ncc(-c2ccc3c(=O)[nH]nc(CN)c3c2)c1-c1c(F)ccc(CC2CC2)c1C#N` (single isomer, unassigned) [Example 16-29, (P)-2-(4-(4-(aminomethyl)-1-oxo-1,2-dihydrophthalazin-6-yl)-1-methyl-1H-pyrazol-5-yl)-6-(cyclopropylmethyl)-3-fluorobenzonitrile], the IC50 at PRMT5/MEP50 complex worked out at 111 nM; in test [1] it was 292 nM.

As to `COc1cc(F)c(-c2c(-c3ccc4c(=O)[nH]nc(CN)c4c3)cnn2C)c(C#N)c1OC1CC1` (atropisomer, axis not shown; (P)) [Example 16-72, (P)-2-[4-[4-(aminomethyl)-1-oxo-2H-phthalazin-6-yl]-2-methyl-pyrazol-3-yl]-6-(cyclopropoxy)-3-fluoro-5-methoxy-benzonitrile], the figures for the IC50 (on PRMT5/MEP50 complex; in test [1]) were 113 nM and 461 nM, respectively.

As for `CCOc1cc(-c2cnn(C)c2-c2c(F)ccc(OC3CC3)c2C#N)cc2c(CN)n[nH]c(=O)c12` (atropisomer, axis not shown; (P)) [Example 16-73, (P)-2-[4-[4-(aminomethyl)-8-ethoxy-1-oxo-2H-phthalazin-6-yl]-2-methyl-pyrazol-3-yl]-6-(cyclopropoxy)-3-fluoro-benzonitrile], the values for the IC50 (at PRMT5/MEP50 complex; in test [1]) were 909 nM and 1070 nM, respectively.

With `Cc1cc(-c2cnn(C)c2-c2c(F)cc3ncc(Cl)cc3c2C#N)cc2c(CN)n[nH]c(=O)c12` (single isomer, unassigned) [Example 16-49, (P)-6-[4-[4-(aminomethyl)-8-methyl-1-oxo-2H-phthalazin-6-yl]-2-methyl-pyrazol-3-yl]-3-chloro-7-fluoro-quinoline-5-carbonitrile], the figures for the IC50 (at PRMT5/MEP50 complex; in test [1]) were 166 nM and 80 nM, respectively.

Turning to `CCOc1cc(-c2cnn(C)c2-c2c(F)c(Cl)cc(OC3CC3)c2C#N)cc2c(CN)n[nH]c(=O)c12` (single isomer, unassigned) [Example 16-78, (M)-2-[4-[4-(aminomethyl)-8-ethoxy-1-oxo-2H-phthalazin-6-yl]-2-methyl-pyrazol-3-yl]-4-chloro-6-(cyclopropoxy)-3-fluoro-benzonitrile], the IC50 at PRMT5/MEP50 complex came out at 139 nM; in test [1] it was 17 nM.

As for `Cn1ncc(-c2ccc3c(=O)[nH]c4c(c3c2)CCNC4)c1-c1sc2ccccc2c1C#N` [Example 18-1, 2-(1-methyl-4-(6-oxo-1,2,3,4,5,6-hexahydrobenzo[c][1,7]naphthyridin-9-yl)-1H-pyrazol-5-yl)benzo[b]thiophene-3-carbonitrile], the IC50 on PRMT5/MEP50 complex is more than 10000 nM; in test [1] (Homo sapiens, HCT-116, 240 h) it was 4140 nM.

Turning to `Cn1ncc(-c2ccc3c(=O)[nH]nc(CN)c3c2)c1-c1sc2ccncc2c1C#N` [Example 4-274, 2-[4-[4-(aminomethyl)-1-oxo-2H-phthalazin-6-yl]-2-methyl-pyrazol-3-yl]thieno[3,2-c]pyridine-3-carbonitrile], the IC50 on PRMT5/MEP50 complex stood at 1070 nM; in test [1] (Homo sapiens, HCT-116, 240 h), 3380 nM.

As to `Cn1ncc(-c2ccc3c(=O)[nH]nc(CN)c3c2)c1-c1c(F)cc2c(c1C#N)OCCO2` (single isomer, unassigned) [Example 16-89, (P)-6-[4-[4-(aminomethyl)-1-oxo-2H-phthalazin-6-yl]-2-methyl-pyrazol-3-yl]-7-fluoro-2,3-dihydro-1,4-benzodioxine-5-carbonitrile], the IC50 at PRMT5/MEP50 complex came out at 1360 nM; in test [1], 514 nM.

Take `Cn1ncc(-c2ccc3c(=O)[nH]nc(CN)c3c2)c1-c1c(C#N)cc2ccccc2c1F` (single isomer, unassigned) [Example 16-54, (M)-3-[4-[4-(aminomethyl)-1-oxo-2H-phthalazin-6-yl]-2-methyl-pyrazol-3-yl]-4-fluoro-naphthalene-2-carbonitrile]: the IC50 on PRMT5/MEP50 complex is 9.19 nM; in test [1] it was 82 nM.

As to `Cc1cnc2c(C#N)c(-c3c(-c4ccc5c(=O)[nH]nc(CN)c5c4)cnn3C)c(F)c(C)c2c1` (atropisomer, axis not shown; (P)) [Example 16-93, (P)-7-(4-(4-(aminomethyl)-1-oxo-1,2-dihydrophthalazin-6-yl)-1-methyl-1H-pyrazol-5-yl)-6-fluoro-3,5-dimethylquinoline-8-carbonitrile], the IC50 at PRMT5/MEP50 complex is 821 nM; in test [1], 3290 nM.

Take `Cn1ncc(-c2ccc3c(=O)[nH]nc(CN)c3c2)c1-c1c(F)cc2ncc(Cl)cc2c1C#N` (single isomer, unassigned) [Example 16-32, (P)-6-[4-[4-(aminomethyl)-1-oxo-2H-phthalazin-6-yl]-2-methyl-pyrazol-3-yl]-3-chloro-7-fluoro-quinoline-5-carbonitrile]: the IC50 stood at 195 nM at PRMT5/MEP50 complex and 458 nM in test [1].

On to `Cc1cc(-c2cnn(C)c2-c2c(F)cc3ncc(Cl)cc3c2C#N)cc2c(CN)n[nH]c(=O)c12` (single isomer, unassigned) [Example 16-50, (M)-6-[4-[4-(aminomethyl)-8-methyl-1-oxo-2H-phthalazin-6-yl]-2-methyl-pyrazol-3-yl]-3-chloro-7-fluoro-quinoline-5-carbonitrile], for which the IC50 on PRMT5/MEP50 complex was 36.4 nM; in test [1], 9 nM.

On to `Cn1ncc(-c2ccc3c(=O)[nH]nc(CN)c3c2)c1-c1sc2cnccc2c1C#N` [Example 4-273, 2-[4-[4-(aminomethyl)-1-oxo-2H-phthalazin-6-yl]-2-methyl-pyrazol-3-yl]thieno[2,3-c]pyridine-3-carbonitrile], for which the IC50 was determined as 376 nM at PRMT5/MEP50 complex and 1440 nM in test [1] (Homo sapiens, HCT-116, 240 h).
